# Experimental data: paper PMC7901654, “Bioisosteric Discovery of NPA101.3, a Second-Generation RET/VEGFR2 Inhibitor Optimized for Single-Agent Polypharmacology” (Journal of Medicinal Chemistry, 2020)
# Assays:
# [1] = Toxicity, plasma biochemical analysis; assay type: in vivo, mouse; settings: 10 mg/kg/day oral, 7 days, mice
# Experimental: In vivo target (RET and VEGFR2) inhibition was studied by treating animals grafted with NIH3T3 RET/C634Y cells at different doses (0.3, 1, or 3 mg/kg/day p.o.) of NPA101.3 for 2 days and then performing Western blot analysis on protein extracts. […] Then, to determine antitumorigenic activity and to better distinguish RET- and VEGFR2-mediated effects, we tested NPA101.3 in nude mice transplanted with NIH3T3 cells transformed by either RET/C634Y or HRAS/G12V. Before tumors appeared, animals were treated daily with NPA101.3 (1.0, 3.0, or 10.0 mg/kg/day) or left untreated. […] Still, VEGFR2 inhibition was detected also in RAS-driven tumors, an effect that might explain the, albeit reduced, effect of the drug on their growth (Figure S13). Importantly, as predicted, no trace of NPA101.3 demethyl metabolites was detected after 1 or 4 h from oral dosing in mice (Figure S14).
# Patch-Clamp assay. The patch-clamp assay has been outsourced to Aptuit (Verona, Italy). […]
# After thawing, cells were maintained in culture using minimum essential medium supplemented with 10% foetal bovine serum, 1% non-essential amino acids, 1% sodium pyruvate, 2mM L-glutamine, 1% pen-strep, 15μg/ml blasticidin and 100 μg/ml hygromycin. hERG channel expression induction was obtained by adding 10 μg/ml tetracycline 48 h before the experiment. […] Current amplitude was measured and […]
# NIH3T3 HRAS/G12V cells = test: Cell growth curves, transformed NIH3T3; assay type: cell-based; settings: up to 100.0 nM
# Experimental: Nthy-ory-3-1 (10000 per well), TPC-1 (10000 per well), MZ-CRC-1 (100000 per well), TT (200000 per well), Lc-2/ad (100000 per well), BCPAP (10000 per well), 8505-C (10000 per well), PC-9 (10000 per well), A549 (10000 per well), CALU-1 (10000 per well), NIH3T3 RET/C634Y (10000 per well), and NIH3T3 HRAS/G12V (10000 per well) were seeded in six-well tissue culture plates. Cells were kept in 2% (TPC-1), 5% (Nthy-ori-3-1), or 10% (BCPAP, 8505-C, CALU-1, A549, PC-9, TT, MZ-CRC-1, and Lc-2/ad) fetal calf serum or in 2% (NIH3T3 RET/C634Y and HRAS/G12V) calf serum. Ba/F3 cells (200000 per well in 2 mL) were seeded in six-well tissue culture plates and kept in 10% fetal calf serum. The day after plating, different concentrations of the drug or vehicle were added to the medium and changed every 2–3 days. Cells were counted every day (Ba/F3), every 2 days (fibroblasts), or every 2–3 days (human cell lines). […] IC50 doses were calculated through a curve fitting analysis from last day of growth curves using the PRISM software program (Graphpad Software Inc.).
# Supplementary Figure S9: NPA101.3-mediated inhibition of proliferation of RET-transformed NIH3T3 cells […] Serum-starved NIH3T3 cells exogenously expressing the RET/C634Y or HRAS/G12V oncogenes were incubated with vehicle (NT: not treated) or the indicated concentrations of the compound and counted at the indicated time points. […]
structure (smiles),measurement,setting,value
CC(C)(C)c1cc(NC(=O)Cc2ccc(-n3cnc4cc(-c5ccc(S(C)(=O)=O)cc5)ccc43)cc2)no1 [NPA101.3],standard blood markers of organ damage,[1],no significant change
same,effect on proliferation of NIH3T3 HRAS/G12V cells,NIH3T3 HRAS/G12V cells,virtually no effect
